Where two headings read alike, the source gives them in different places. No end group written: not given here.
What was measured:
Cryptococcus neoformans = system: Cryptococcus neoformans
Protocol: (§1) Antimicrobial activity was tested against three categories of human and plant pathogenic microorganisms: Gram-positive (Bacillus subtilis, Bacillus cereus, Staphylococcus aureus), Gram-negative (Escherichia coli, Pseudomonas aeruginosa, Erwinia carotovora, Pseudomonas syringae pv. tabaci, Xanthomonas campestris pv. citri) and yeasts (Candida albicans, Cryptococcus neoformans), as previously reported. […] The full list of peptide MICs was published in an accompanying paper, and is available in the current publication as supplementary dataset (Supplementary dataset 01).
(§2) The determination of the minimum inhibitory concentration (MIC) of peptides was performed as described in “Encrypted Antimicrobial Peptides from Plant Proteins”[7]. Briefly, MICs were determined following protocols M7-A10 and M27-A3 from Clinical & Laboratory Standards Institute (CLSI) for bacteria and yeasts, respectively. Different concentrations of IAPs (0.5 to 256 μM) were tested against several microorganisms in a final volume of 100 µL. Three biological repetitions, with 2 technical replicates each, were performed for each test, on polystyrene flat-bottom 96 wells microplates. The minimum inhibitory concentration (MIC) was defined as the concentration at which no cells were detected when visualized by optical microscopy. Please refer to the literature[7] for further details of the microbiological assays.

Staphylococcus aureus = system: Staphylococcus aureus
Protocol: as §1, §2

Pseudomonas aeruginosa = system: Pseudomonas aeruginosa
Protocol: as §1, §2

Bacillus subtilis = system: Bacillus subtilis
Protocol: as §1, §2

Candida albicans = system: Candida albicans
Protocol: as §1, §2

[1] = system: Pseudomonas syringae pv. tabaci
Protocol: as §1, §2

Xanthomonas campestris = conditions: for Minimum inhibitory concentration, Average: average of triplicates
Protocol: as §1, §2

Escherichia coli = system: Escherichia coli
Protocol: as §1, §2

Erwinia carotovora = system: Erwinia carotovora
Protocol: as §1, §2

Bacillus cereus = system: Bacillus cereus
Protocol: as §1, §2

[2] = Cryptococcus neoformans, CLSI M27-A3, triplicate 1
[3] = Cryptococcus neoformans, average of triplicates
[4] = Cryptococcus neoformans, triplicate 2
[5] = Cryptococcus neoformans, triplicate 3
[6] = Staphylococcus aureus, CLSI M7-A10, triplicate 1
[7] = Staphylococcus aureus, average of triplicates
[8] = Staphylococcus aureus, triplicate 2
[9] = Staphylococcus aureus, triplicate 3
[10] = Pseudomonas aeruginosa, CLSI M7-A10, triplicate 1
[11] = Pseudomonas aeruginosa, average of triplicates
[12] = Pseudomonas aeruginosa, triplicate 2
[13] = Pseudomonas aeruginosa, triplicate 3
[14] = Bacillus subtilis, CLSI M7-A10, triplicate 1
[15] = Bacillus subtilis, average of triplicates
[16] = Bacillus subtilis, triplicate 2
[17] = Bacillus subtilis, triplicate 3
[18] = Candida albicans, CLSI M27-A3, 0.5 to 256 μM tested, triplicate 1, also published in ref 7
[19] = Candida albicans, average of triplicates
[20] = Pseudomonas syringae pv. tabaci, CLSI M7-A10, triplicate 1
[21] = Pseudomonas syringae pv. tabaci, average of triplicates
[22] = Pseudomonas syringae pv. tabaci, triplicate 2
[23] = Pseudomonas syringae pv. tabaci, triplicate 3
[24] = Escherichia coli, CLSI M7-A10, triplicate 1
[25] = Escherichia coli, average of triplicates
[26] = Erwinia carotovora, CLSI M7-A10, triplicate 1
[27] = Erwinia carotovora, average of triplicates
[28] = Erwinia carotovora, triplicate 2
[29] = Erwinia carotovora, triplicate 3

## GFKLGRKLVKVFKWII [Gr01]
Cryptococcus neoformans; [2]
  Minimum inhibitory concentration: 1 µM
Cryptococcus neoformans; [3]
  Minimum inhibitory concentration, Average: 1.0 µM
Cryptococcus neoformans; [4]
  Minimum inhibitory concentration: 1 µM
Cryptococcus neoformans; [5]
  Minimum inhibitory concentration: 1 µM
Staphylococcus aureus; [6]
  Minimum inhibitory concentration: 0.5 µM
Staphylococcus aureus; [7]
  Minimum inhibitory concentration, Average: 0.8 µM
Staphylococcus aureus; [8]
  Minimum inhibitory concentration: 1 µM
Staphylococcus aureus; [9]
  Minimum inhibitory concentration: 1 µM
Pseudomonas aeruginosa; [10]
  Minimum inhibitory concentration: 2 µM
Pseudomonas aeruginosa; [11]
  Minimum inhibitory concentration, Average: 3.3 µM
Pseudomonas aeruginosa; [12]
  Minimum inhibitory concentration: 4 µM
Pseudomonas aeruginosa; [13]
  Minimum inhibitory concentration: 4 µM
Bacillus subtilis; [14]
  Minimum inhibitory concentration: 1 µM
Bacillus subtilis; [15]
  Minimum inhibitory concentration, Average: 1.0 µM
Bacillus subtilis; [16]
  Minimum inhibitory concentration: 1 µM
Bacillus subtilis; [17]
  Minimum inhibitory concentration: 1 µM
Candida albicans; [18]
  Minimum inhibitory concentration: 1 µM
Candida albicans; [19]
  Minimum inhibitory concentration, Average: 1.0 µM
Candida albicans; Candida albicans, triplicate 2
  Minimum inhibitory concentration: 1 µM
Candida albicans; Candida albicans, triplicate 3
  Minimum inhibitory concentration: 1 µM
[1]; [20]
  Minimum inhibitory concentration: 1 µM
[1]; [21]
  Minimum inhibitory concentration, Average: 1.0 µM
[1]; [22]
  Minimum inhibitory concentration: 1 µM
[1]; [23]
  Minimum inhibitory concentration: 1 µM
Xanthomonas campestris; CLSI M7-A10, triplicate 1
  Minimum inhibitory concentration: 1 µM
Xanthomonas campestris
  Minimum inhibitory concentration, Average: 1.0 µM
Xanthomonas campestris; triplicate 2
  Minimum inhibitory concentration: 1 µM
Xanthomonas campestris; triplicate 3
  Minimum inhibitory concentration: 1 µM
Escherichia coli; [24]
  Minimum inhibitory concentration: 0.5 µM
Escherichia coli; [25]
  Minimum inhibitory concentration, Average: 0.5 µM
Escherichia coli; Escherichia coli, triplicate 2
  Minimum inhibitory concentration: 0.5 µM
Escherichia coli; Escherichia coli, triplicate 3
  Minimum inhibitory concentration: 0.5 µM
Erwinia carotovora; [26]
  Minimum inhibitory concentration: 0.5 µM
Erwinia carotovora; [27]
  Minimum inhibitory concentration, Average: 0.5 µM
Erwinia carotovora; [28]
  Minimum inhibitory concentration: 0.5 µM
Erwinia carotovora; [29]
  Minimum inhibitory concentration: 0.5 µM
Bacillus cereus; Bacillus cereus, CLSI M7-A10, triplicate 1
  Minimum inhibitory concentration: 1 µM
Bacillus cereus; Bacillus cereus, average of triplicates
  Minimum inhibitory concentration, Average: 1.0 µM
Bacillus cereus; Bacillus cereus, triplicate 2
  Minimum inhibitory concentration: 1 µM
Bacillus cereus; Bacillus cereus, triplicate 3
  Minimum inhibitory concentration: 1 µM

## GSLHGFMYKYLKNMVLTLF [At01]
Cryptococcus neoformans; [2]
  Minimum inhibitory concentration: 16 µM
Cryptococcus neoformans; [3]
  Minimum inhibitory concentration, Average: 16.0 µM
Cryptococcus neoformans; [4]
  Minimum inhibitory concentration: 16 µM
Cryptococcus neoformans; [5]
  Minimum inhibitory concentration: 16 µM
Staphylococcus aureus; [6]
  Minimum inhibitory concentration: 16 µM
Staphylococcus aureus; [7]
  Minimum inhibitory concentration, Average: 16.0 µM
Staphylococcus aureus; [8]
  Minimum inhibitory concentration: 16 µM
Staphylococcus aureus; [9]
  Minimum inhibitory concentration: 16 µM
Pseudomonas aeruginosa; [10]
  Minimum inhibitory concentration: 32 µM
Pseudomonas aeruginosa; [11]
  Minimum inhibitory concentration, Average: 32.0 µM
Pseudomonas aeruginosa; [12]
  Minimum inhibitory concentration: 32 µM
Pseudomonas aeruginosa; [13]
  Minimum inhibitory concentration: 32 µM
Bacillus subtilis; [14]
  Minimum inhibitory concentration: 16 µM
Bacillus subtilis; [15]
  Minimum inhibitory concentration, Average: 16.0 µM
Bacillus subtilis; [16]
  Minimum inhibitory concentration: 16 µM
Bacillus subtilis; [17]
  Minimum inhibitory concentration: 16 µM
Candida albicans; [18]
  Minimum inhibitory concentration: 16 µM
Candida albicans; [19]
  Minimum inhibitory concentration, Average: 16.0 µM
Candida albicans; Candida albicans, triplicate 2
  Minimum inhibitory concentration: 16 µM
Candida albicans; Candida albicans, triplicate 3
  Minimum inhibitory concentration: 16 µM
[1]; [20]
  Minimum inhibitory concentration: 16 µM
[1]; [21]
  Minimum inhibitory concentration, Average: 16.0 µM
[1]; [22]
  Minimum inhibitory concentration: 16 µM
[1]; [23]
  Minimum inhibitory concentration: 16 µM
Xanthomonas campestris; CLSI M7-A10, triplicate 1
  Minimum inhibitory concentration: 128 µM
Xanthomonas campestris
  Minimum inhibitory concentration, Average: 128.0 µM
Xanthomonas campestris; triplicate 2
  Minimum inhibitory concentration: 128 µM
Xanthomonas campestris; triplicate 3
  Minimum inhibitory concentration: 128 µM
Escherichia coli; [24]
  Minimum inhibitory concentration: 64 µM
Escherichia coli; [25]
  Minimum inhibitory concentration, Average: 64.0 µM
Escherichia coli; Escherichia coli, triplicate 2
  Minimum inhibitory concentration: 64 µM
Escherichia coli; Escherichia coli, triplicate 3
  Minimum inhibitory concentration: 64 µM
Erwinia carotovora; [26]
  Minimum inhibitory concentration: 256 µM
Erwinia carotovora; [27]
  Minimum inhibitory concentration, Average: 256.0 µM
Erwinia carotovora; [28]
  Minimum inhibitory concentration: 256 µM
Erwinia carotovora; [29]
  Minimum inhibitory concentration: 256 µM
Bacillus cereus
  Minimum inhibitory concentration: 128 µM
  Minimum inhibitory concentration, Average: 128.0 µM

## GLWSTIKQKGKEAAIAAAKAAGQAALGAL-NH2 [DS01, Dermaseptin DS01, reference compound]
Cryptococcus neoformans
  Minimum inhibitory concentration, Average: 8.0 µM
Staphylococcus aureus
  Minimum inhibitory concentration, Average: 8.0 µM
Pseudomonas aeruginosa
  Minimum inhibitory concentration, Average: 2.0 µM
Bacillus subtilis
  Minimum inhibitory concentration, Average: 1.0 µM
Candida albicans
  Minimum inhibitory concentration, Average: 4.0 µM
[1]
  Minimum inhibitory concentration, Average: 1.0 µM
Xanthomonas campestris
  Minimum inhibitory concentration, Average: 0.5 µM
Escherichia coli
  Minimum inhibitory concentration, Average: 1.0 µM
Erwinia carotovora
  Minimum inhibitory concentration, Average: 0.5 µM
Bacillus cereus
  Minimum inhibitory concentration, Average: 16.0 µM

Source: article PMC5775428, “Towards an experimental classification system for membrane active peptides” (Scientific Reports, 2018)
